Data: patent US20130252935A1, “Monobactams” (PFIZER INC., priority 2010, published 2013)
Converted amounts (≈) assume the structure as drawn.

Assays:
Format in all cases: cell-based
[1] = system: Pseudomonas aeruginosa UC-12120; experiment: minimum inhibitory concentration (MIC) testing according to CLSI guidelines, Pseudomonas aeruginosa; settings: Pseudomonas aeruginosa, UC12120; UC-12120, wild-type, labeled as 1091-05; overnight incubation; lower of duplicate values; read-out: AB-MBT: Pseudomonas aeruginosa 1091-05: MIC (MstRcn)
Description: (§1) In order to assess the compounds biological activity, the in vitro anti-bacterial activity of selected compounds described in the Examples 1-69 was evaluated by minimum inhibitory concentration (MIC) testing according to Clinical and Laboratory Standards Institute (CLSI, formerly NCCLS) guidelines. See: Clinical and Laboratory Standards Institute. Methods for Dilution Antimicrobial Susceptibility Tests for Bacteria that Grow Aerobically; Approved Standard-Eighth Edition. CLSI document M7-A8 [ISBN 1-56238-689-1]. Clinical and Laboratory Standards Institute, 940 West Valley Road, Suite 1400, Wayne, Pa. 19087-1898 USA, 2006; also Clinical and Laboratory Standards Institute. Performance Standards for Antimicrobial Susceptibility Testing; Twentieth Informational Supplement. CLSI document M100-S20 [ISBN1-56238-716-2]. Clinical and Laboratory Standards Institute.
(§2) The MIC determination is a standard laboratory method for evaluating the antibacterial activity of a compound. The MIC represents the lowest drug concentration that inhibits visible growth of bacteria following overnight incubation. […] Typically, the drug concentration range is broken down into 2-fold increments (e.g. 0.06 μg/mL, 0.12 μg/mL. 0.25 μg/mL, 0.50 μg/mL, 1.0 μg/mL, etc.) and the various drug concentrations are all individually incubated overnight with approximately the same number of bacteria. The MIC is then determined by visually inspecting the drug effect at each concentration, and identifying the lowest drug concentration that has inhibited bacterial growth as compared to the drug free control. Typically, bacteria continue to grow at drug concentrations lower than the MIC and don't grow at concentrations at and above the MIC.
(§3) The MIC values described in Table 1 below were derived from assays wherein each test compound was evaluated in duplicate. In cases where the duplicate values varied by 0-2-fold, the lower of the two values was reported below. Generally speaking, if the duplicate values varied by more than 2-fold, the assay was considered non-valid and was repeated until the variation between duplicate runs was ≦2-fold. In line with the CLSI guidelines referred to above, both control organisms and reference compounds were utilized in each MIC assay to provide proper quality control. MIC values generated with these control organisms and reference compounds were required to fall within a defined range for the assay to be considered valid and be included herein. Those skilled in the art will recognize that MIC values can and do vary from experiment to experiment. Generally speaking, it should be recognized that MIC values often vary +/−2-fold from experiment to experiment. While a single MIC is reported for each compound and each microorganism, the reader should not conclude that each compound was only tested once. Several of the compounds were subjected to multiple tests. The data reported in Table 1 is reflective of the compounds relative activity and different MICs may have been generated on these occasions in light with the guidelines described above.
(§4) The following bacterial strains were used in these MIC determinations:
1) Pseudomonas aeruginosa UC-12120: Wild-type, labeled as 1091-05;

[2] = system: Klebsiella pneumoniae 1000-02; experiment: minimum inhibitory concentration (MIC) testing according to CLSI guidelines, Klebsiella pneumoniae; settings: Klebsiella pneumoniae; ciprofloxacin-resistant, ESBL-expressing clinical isolate 1000-02; overnight incubation; lower of duplicate values; read-out: AB-MBT: Klebsiella pneumoniae 1000-02: MIC (MstRcnt)
Description: as §1, §2, §3, §4
2) Klebsiella pneumoniae: Ciprofloxacin-resistant isolate, expresses extended-spectrum beta-lactamases (ESBL), clinical isolate, labeled as 1000-02;

[3] = system: Acinetobacter baumannii/haemolyticus AB-3167; experiment: minimum inhibitory concentration (MIC) testing according to CLSI guidelines, Acinetobacter; settings: Acinetobacter baumannii; multidrug-resistant clinical isolate AB-3167; overnight incubation; lower of duplicate values; read-out: AB-MBT: Acinetobacter baumanii AB-3167: MIC (MstRcnt)
Description: as §1, §2, §3, §4
3) Acinetobacter baumannii/haemolyticus: Multidrug-resistant clinical isolate, labeled as AB-3167.

## Nc1nc(/C(=N/OC2(C(=O)O)CCCC2)C(=O)N[C@@H]2C(=O)N(S(=O)(=O)O)[C@@H]2CNC(=O)NCc2cc(=O)c(O)cn2O)cs1 [Example 26, 1-({[(1Z)-1-(2-amino-1,3-thiazol-4-yl)-2-({(2R,3S)-2-[({[(1,5-dihydroxy-4-oxo-1,4-dihydropyridin-2-yl)methyl]carbamoyl}amino)methyl]-4-oxo-1-sulfoazetidin-3-yl}amino)-2-oxoethylidene]amino}oxy)cyclopentanecarboxylic acid]
[1]
  MIC: 0.125 µg/mL (≈ 0.19 µM)
[2]
  MIC: 0.125 µg/mL (≈ 0.19 µM)
[3]
  MIC: 0.25 µg/mL (≈ 0.38 µM)

## Nc1nc(/C(=N/OC2(C(=O)O)CCOCC2)C(=O)N[C@@H]2C(=O)N(S(=O)(=O)O)[C@@H]2CNC(=O)NCc2cc(=O)c(O)cn2O)cs1 [Example 27, 4-({[(1Z)-1-(2-amino-1,3-thiazol-4-yl)-2-({(2R,3S)-2-[({[(1,5-dihydroxy-4-oxo-1,4-dihydropyridin-2-yl)methyl]carbamoyl}amino)methyl]-4-oxo-1-sulfoazetidin-3-yl}amino)-2-oxoethylidene]amino}oxy)tetrahydro-2H-pyran-4-carboxylic acid]
[1]
  MIC: 1 µg/mL (≈ 1.48 µM)
[2]
  MIC: 1 µg/mL (≈ 1.48 µM)
[3]
  MIC: 2 µg/mL (≈ 2.96 µM)

## Nc1nc(/C(=N/OC2(C(=O)O)CCCCC2)C(=O)N[C@@H]2C(=O)N(S(=O)(=O)O)[C@@H]2CNC(=O)NCc2cc(=O)c(O)cn2O)cs1 [Example 28, 1-({[(1Z)-1-(2-amino-1,3-thiazol-4-yl)-2-({(2R,3S)-2-[({[(1,5-dihydroxy-4-oxo-1,4-dihydropyridin-2-yl)methyl]carbamoyl}amino)methyl]-4-oxo-1-sulfoazetidin-3-yl}amino)-2-oxoethylidene]amino}oxy)cyclohexanecarboxylic acid]
[1]
  MIC: 1 µg/mL (≈ 1.49 µM)
[2]
  MIC: 0.5 µg/mL (≈ 0.743 µM)
[3]
  MIC: 1 µg/mL (≈ 1.49 µM)

## CC(C)(O/N=C(\C(=O)N[C@@H]1C(=O)N(S(=O)(=O)O)[C@@H]1CNC(=O)NCc1cc(=O)c(O)cn1O)c1nc(N)sc1Cl)C(=O)O [Example 29, 2-({[(1Z)-1-(2-amino-5-chloro-1,3-thiazol-4-yl)-2-({(2R,3S)-2-[({[(1,5-dihydroxy-4-oxo-1,4-dihydropyridin-2-yl)methyl]carbamoyl}amino)methyl]-4-oxo-1-sulfoazetidin-3-yl}amino)-2-oxoethylidene]amino}oxy)-2-methylpropanoic acid]
[1]
  MIC: 0.25 µg/mL (≈ 0.375 µM)
[2]
  MIC: 1 µg/mL (≈ 1.5 µM)
[3]
  MIC: 0.5 µg/mL (≈ 0.75 µM)

## Nc1nc(/C(=N/OC2(C(=O)O)CCC2)C(=O)N[C@@H]2C(=O)N(S(=O)(=O)O)[C@@H]2CNC(=O)NCc2cc(=O)c(O)cn2O)cs1 [Example 30, 1-({[(1Z)-1-(2-amino-1,3-thiazol-4-yl)-2-({(2R,3S)-2-[({[(1,5-dihydroxy-4-oxo-1,4-dihydropyridin-2-yl)methyl]carbamoyl}amino)methyl]-4-oxo-1-sulfoazetidin-3-yl}amino)-2-oxoethylidene]amino}oxy)cyclobutanecarboxylic acid]
[1]
  MIC: 0.125 µg/mL (≈ 0.194 µM)
[2]
  MIC: 0.125 µg/mL (≈ 0.194 µM)
[3]
  MIC: 0.25 µg/mL (≈ 0.388 µM)

## CC(C)C[C@H](O/N=C(\C(=O)N[C@@H]1C(=O)N(S(=O)(=O)O)[C@@H]1CNC(=O)NCc1cc(=O)c(O)cn1O)c1csc(N)n1)C(=O)O [Example 31, (2S)-2-({[(1Z)-1-(2-amino-1,3-thiazol-4-yl)-2-({(2R,3S)-2-[({[(1,5-dihydroxy-4-oxo-1,4-dihydropyridin-2-yl)methyl]carbamoyl}amino)methyl]-4-oxo-1-sulfoazetidin-3-yl}amino)-2-oxoethylidene]amino}oxy)-4-methylpentanoic acid]
[1]
  MIC: 1 µg/mL (≈ 1.51 µM)
[2]
  MIC: 0.5 µg/mL (≈ 0.757 µM)
[3]
  MIC: 0.5 µg/mL (≈ 0.757 µM)

## Nc1nc(/C(=N/O[C@@H](Cc2ccccc2)C(=O)O)C(=O)N[C@@H]2C(=O)N(S(=O)(=O)O)[C@@H]2CNC(=O)NCc2cc(=O)c(O)cn2O)cs1 [Example 32, (2S)-2-({[(1Z)-1-(2-amino-1,3-thiazol-4-yl)-2-({(2R,3S)-2-[({[(1,5-dihydroxy-4-oxo-1,4-dihydropyridin-2-yl)methyl]carbamoyl}amino)methyl]-4-oxo-1-sulfoazetidin-3-yl}amino)-2-oxoethylidene]amino}oxy)-3-phenylpropanoic acid]
[1]
  MIC: 1 µg/mL (≈ 1.44 µM)
[2]
  MIC: 1 µg/mL (≈ 1.44 µM)
[3]
  MIC: 1 µg/mL (≈ 1.44 µM)
